According to patent publication US5807986A, “Methods of making and screening betide libraries” (The Salk Institute For Biological Studies, priority 1995, dated 1998):
Values joined by “and” are separate entries in the source; they are usually repeats but may differ in a detail not shown here. Equal entries are not always repeated. Where a SMILES comes first, the peptide text is derived from it. [ ]: non-standard residue; d: D form. dPhe(4-NH2) = Nc1ccc(C[C@@H](N)C(=O)O)cc1; dPhe(4-Cl) = N[C@H](Cc1ccc(Cl)cc1)C(=O)O; Phe(4-NH2) = Nc1ccc(C[C@H](N)C(=O)O)cc1; d2Nal = N[C@H](Cc1ccc2ccccc2c1)C(=O)O; Lys(iPr) = CC(C)NCCCC[C@H](N)C(=O)O; d3Pal = N[C@H](Cc1cccnc1)C(=O)O

Columns and labels:
[1] = test system: ovulation in female rats; test: standard in vivo rat anti-ovulation test; set-up: species or system Sprague-Dawley rats; conditions: injected at about noon on the day of proestrus
Method: (§1) The betide is assayed in vivo to determine its effectiveness to prevent ovulation in female rats. In this test, a specified number of mature female Sprague-Dawley rats, e.g. five to ten, each having a body weight from 225 to 250 grams, are injected with a specified microgram dosage of the betide in bacteriostatic water at about noon on the day of proestrus. Proestrus is the […] of ovulation. A separate female rat group is used as a control to which the peptide is not administered. Each of the control female rats ovulates on the evening of proestrus; the number of the rats treated which ovulate is recorded. […] At a dosage of 1.0 microgram for isomer (1), all ovulate while for 1 μg of isomer (2), only 6 out of 14 rats ovulate and for 0.5 μg, 3 out of 4 rats ovulate. Isomer (2) is hereinafter referred to as Betide No. 1.

[2] = molecular target: T1, mSSTR1 (Mus musculus, UniProt P30873); test: inhibition of radioligand binding to cloned SRIF receptor mSSTR1; conditions: cloned mouse receptor expressed on COS and CHO cells
T1 construct: expressed in transfected cells; host or cells: COS and CHO cells
Method: (§2) In vitro Bioassay: The effects of the various somatostatin analogs are tested in vitro for their ability to bind to isolated cloned receptors expressed on COS and CHO cells.
(§3) Five such receptor subtypes termed SSTR1 through SSTR5, have been cloned and are reported and described in Raynor et al., Molecular Pharmacology, 43, 838-844 (1993) and in Raynor et al., Molecular Pharmacology, 44, 385-392 (1993).

[3] = molecular target: T2, mSSTR2 (Mus musculus, UniProt P30875); test: inhibition of radioligand binding to cloned SRIF receptor mSSTR2; conditions: cloned mouse receptor expressed on COS and CHO cells
T2 construct: expressed in transfected cells; host or cells: COS and CHO cells
Method: as §2, §3

[4] = molecular target: T3, mSSTR3 (Mus musculus, UniProt P30935); test: inhibition of radioligand binding to cloned SRIF receptor mSSTR3; conditions: cloned mouse receptor expressed on COS and CHO cells
T3 construct: expressed in transfected cells; host or cells: COS and CHO cells
Method: as §2, §3

[5] = examination of rats for tolerance and gelling at the point of injection; assay type: in vivo; conditions: rats of the anti-ovulation test, injected in bacteriostatic water
Method: as §1

[6] = hydrophilicity by retention on RP-HPLC; assay type: physicochemical

T2 sequence (P30875 whole entry): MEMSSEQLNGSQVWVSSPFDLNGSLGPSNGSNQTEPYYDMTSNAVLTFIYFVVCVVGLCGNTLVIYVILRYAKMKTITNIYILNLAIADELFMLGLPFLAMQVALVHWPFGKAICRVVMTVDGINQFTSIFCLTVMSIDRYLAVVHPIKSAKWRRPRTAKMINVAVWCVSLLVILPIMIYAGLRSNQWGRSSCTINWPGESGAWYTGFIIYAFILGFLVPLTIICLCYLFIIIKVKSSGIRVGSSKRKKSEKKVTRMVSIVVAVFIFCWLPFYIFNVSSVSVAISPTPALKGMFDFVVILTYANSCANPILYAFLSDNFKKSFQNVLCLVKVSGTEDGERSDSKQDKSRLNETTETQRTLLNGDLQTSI
T1 sequence (P30873 whole entry): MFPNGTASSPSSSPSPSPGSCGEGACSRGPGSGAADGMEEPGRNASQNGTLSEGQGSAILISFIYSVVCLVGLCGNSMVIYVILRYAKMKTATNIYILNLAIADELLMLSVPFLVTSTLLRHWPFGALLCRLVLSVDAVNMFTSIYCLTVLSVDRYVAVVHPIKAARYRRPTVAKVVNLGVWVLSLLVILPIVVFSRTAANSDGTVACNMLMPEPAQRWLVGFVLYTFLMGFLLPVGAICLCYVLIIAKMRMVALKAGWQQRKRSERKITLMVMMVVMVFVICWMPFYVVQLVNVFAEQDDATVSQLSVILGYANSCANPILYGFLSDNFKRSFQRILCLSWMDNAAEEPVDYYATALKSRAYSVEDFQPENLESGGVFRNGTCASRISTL
T3 sequence (P30935 whole entry): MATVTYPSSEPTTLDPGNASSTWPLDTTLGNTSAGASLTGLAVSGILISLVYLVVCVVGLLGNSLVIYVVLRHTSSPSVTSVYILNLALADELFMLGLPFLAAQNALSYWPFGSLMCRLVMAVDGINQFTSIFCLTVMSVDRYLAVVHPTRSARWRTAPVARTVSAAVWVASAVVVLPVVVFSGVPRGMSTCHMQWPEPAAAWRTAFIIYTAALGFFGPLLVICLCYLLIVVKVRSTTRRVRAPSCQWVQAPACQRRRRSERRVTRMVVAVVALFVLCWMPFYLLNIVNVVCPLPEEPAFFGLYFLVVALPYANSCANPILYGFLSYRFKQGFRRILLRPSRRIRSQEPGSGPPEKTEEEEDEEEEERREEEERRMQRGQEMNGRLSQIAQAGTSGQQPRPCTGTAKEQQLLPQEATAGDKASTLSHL

For “Ac-β-D-2NAL-(4Cl)D-Phe-D-3PAL-Ser-γ-(4-hydroxyphenyl)D/L-amidoGly-D-Aph(acetyl)-Leu-Lys(isopropyl)-Pro-D-Ala-NH2 [Betide No. 4A]”, the “rats ovulating out of rats treated” value ([1]; dosage 5 μg) was 2 out of 16.

In the case of `C[C@@H](O)[C@@H]1NC(=O)[C@H](CCCCN)NC(=O)C(NC(=O)c2ccc3ccccc3c2)NC(=O)[C@H](Cc2ccccc2)NC(=O)[C@H](Cc2ccccc2)NC(=O)[C@@H](N)CSSC[C@@H](C(=O)O)NC(=O)[C@H](Cc2ccccc2)NC1=O` (stereo partly drawn) [Betide No. 7, (cyclo 1-8)H-Cys-Phe-Phe-(2-naphthylamido)Gly-Lys-Thr-Phe-Cys-OH], the IC50 [2] is reported as > 1000 nM, the IC50 [3] is reported as > 1000 nM and the IC50 [4] is reported as > 1000 nM.

With `C[C@@H](O)[C@@H]1NC(=O)C(NC(=O)CCN)NC(=O)[C@@H](Cc2c[nH]c3ccccc23)NC(=O)[C@H](Cc2ccccc2)NC(=O)[C@H](Cc2ccccc2)NC(=O)[C@@H](N)CSSC[C@@H](C(=O)O)NC(=O)[C@H](Cc2ccccc2)NC1=O` (stereo partly drawn) [Betide No. 8, (cyclo 1-8)H-Cys-Phe-Phe-D-Trp-γ-(2-aminoethyl)amido-glycine-Thr-Phe-Cys-OH] the IC50 [2] was > 1000 nM, the IC50 [3] was > 1000 nM and the IC50 [4] was > 1000 nM.

With `CC(=O)Nc1ccc(C[C@H](NC(=O)[C@H](CO)NC(=O)C(NC(=O)c2cccnc2)NC(=O)[C@@H](Cc2ccc(Cl)cc2)NC(=O)[C@@H](Cc2ccc3ccccc3c2)NC(C)=O)C(=O)N[C@H](Cc2ccc(NC(C)=O)cc2)C(=O)N[C@@H](CC(C)C)C(=O)N[C@@H](CCCCNC(C)C)C(=O)N2CCC[C@H]2C(=O)N[C@H](C)C(N)=O)cc1` (single isomer, unassigned) [Betide No. 1, [Ac-β-D-2NAL^1, (4Cl)D-Phe^2, D/L Agl(nicotinoyl)^3, Aph(Ac)^5, D-Aph(Ac)^6, ILys^8, D-Ala^10]-GnRH] the “tolerance and gelling at the point of injection” value [5] was “very well tolerated, with no significant gelling at the point of injection being detectable”.

With “[Ac-βCH3 -D-2NAL^1, 4ClD-Phe^2, D-3PAL^3, Aph(atz)^5, D-Aph(atz)^6, ILys^8, D-Ala^10 ]-GnRH [E stereoisomer]” the “rats ovulating out of rats treated” value ([1]; dosage 1.0 μg) was “partially active” and the “rats ovulating out of rats treated” value ([1]; dosage 2.5 μg) was “fully active”.

With `CC(=O)Nc1ccc(C[C@H](NC(=O)[C@H](CO)NC(=O)[C@@H](Cc2cccnc2)NC(=O)[C@@H](Cc2ccc(Cl)cc2)NC(=O)[C@@H](Cc2ccc3ccccc3c2)NC(C)=O)C(=O)N[C@H](Cc2ccc(NC(C)=O)cc2)C(=O)N[C@@H](CC(C)C)C(=O)N[C@@H](CCCCNC(C)C)C(=O)N2CCC[C@H]2C(=O)N[C@H](C)C(N)=O)cc1` [Acyline, Ac-β-D-2NAL-(4Cl)D-Phe-D-3PAL-Ser-Aph(Ac)D-Aph(Ac)-Leu-ILys-Pro-D-Ala-NH2, reference compound] (Ac-[d2Nal][dPhe(4-Cl)][d3Pal]S[Phe(4-NH2)](Ac)[dPhe(4-NH2)](Ac)L[Lys(iPr)]P[dA]-NH2) the “retention using RP-HPLC (hydrophilicity)” value ([6]; gradient 40% to 75% Buffer B over 30 minutes, Buffer A TEAP pH 7.3, Buffer B 60% CH3CN and 40% Buffer A) was 24.1 min.

With “Ac-β-D-2NAL-(4Cl)D-Phe-D-3PAL-Ser-Aph(acetyl)-γ-(4-acetamidophenyl)D/L-amidoGly-Leu-Lys (isopropyl)-Pro-D-Ala-NH2 [Betide No. 5]” the “rats ovulating out of rats treated” value ([1]; dosage 2.5 μg) was 2 out of 4 and the “rats ovulating out of rats treated” value ([1]; dosage 5 μg) was 1 out of 8.

In the case of “Ac-β-D-2NAL-(4Cl)D-Phe-D-(3-pyridyl)Ala-Ser-Aph(acetyl)-D-Aph(acetyl)-D/L-Agl(Acetyl)-Lys(isopropyl)-Pro-D-Ala-NH2 [Betide No. 2]”, the “rats ovulating out of rats treated” value ([1]; dosage 5 μg) is reported as 5 out of 8, the “rats ovulating out of rats treated” value ([1]; dosage 10 μg) is reported as 0 out of 8 and the “hydrophilicity compared to Acyline” value ([6]; RP-HPLC) is reported as “more hydrophilic than Acyline”.

With “Ac-β-D-2NAL-(4Cl)D-Phe-D-3PAL-Ser-(4-Acetyl-amino-benzyl)D/L-amidoGly-D-Aph(acetyl)-Leu-Lys(isopropyl)-Pro-D-Ala-NH2 [Betide No. 4]” the “rats ovulating out of rats treated” value ([1]; dosage 5 μg) was 2 out of 8.

For `C[C@@H](O)[C@@H]1NC(=O)[C@H](CCCCN)NC(=O)C(N(C)C(=O)c2ccc3ccccc3c2)NC(=O)[C@H](Cc2ccccc2)NC(=O)[C@H](Cc2ccccc2)NC(=O)[C@@H](N)CSSC[C@@H](C(=O)O)NC(=O)[C@H](Cc2ccccc2)NC1=O` (stereo partly drawn) [Betide No. 7A, (cyclo 1-8)H-Cys-Phe-Phe-(β-methyl-γ-2-naphthyl)D/L(amido)Gly-Lys-Thr- Phe-Cys-OH], the IC50 [2] was > 1000 nM and 600 nM and the IC50 [3] was > 1000 nM.
